The source of these data is PMC11858597, “Synthesis, Anticancer Screening, and In Silico Evaluations of Thieno[2,3-c]pyridine Derivatives as Hsp90 Inhibitors” (Pharmaceuticals, 2025).

What all share (format): cell-based
In one experiment the test system is T47D. In words: MTT assay, T47D breast cancer cells. Particulars: Homo sapiens, 72 h, read-out: % cell growth inhibition. From the text: (§1) An MTT assay was used to evaluate the final compounds’ anticancer activity against MCF7 and T47D (breast cancer cells), HSC3 (head and neck cancer cells), and RKO (colorectal cancer cells) cell lines, using cisplatin as a reference standard. Table 1 presents the percentage growth inhibition of all compounds against the various cancer cell lines.
(§2) The cancer cell lines MCF7 and T47D (breast cancer cells), HSC3 (head and neck cancer cells), and RKO (colorectal cancer cells) were kindly provided by Prof. Stephan Feller, Institute of Molecular Medicine, Martin Luther University, Halle, Germany. The human fibroblast (PDL) cell line was obtained as a kind gift from Prof. Khaled Al-Qaoud (Yarmouk University, Irbid, Jordan). All cell lines were cultured in Dulbecco’s Modified Eagle’s Medium (DMEM) supplemented with 10% fetal bovine serum, 100 µg/mL streptomycin, 100 U/mL penicillin, and 1% non-essential amino acid at 37 °C with 5% CO2 in a humidified CO2 incubator. The cell cultures were grown to confluence, and the medium was changed two times weekly.
(§3) The MTT (3-[4,5-dimethylthiazol-2-yl]-2,5-diphenyl tetrazolium bromide) assay was used to investigate cell viability and to calculate the half-maximal inhibitory concentration (IC50) values of the compounds 6(a–k) including standard reference cisplatin. Furthermore, […] stock solutions of the compounds were prepared in DMSO where all compounds were completely soluble. Cells were seeded in 96-well tissue culture plates at a density of 6,000 cells/well for MCF7, T47D, and PDL cells and at a density of 4000 cells/well for RKO and HSC3 cells. After 24 h of seeding, investigated cells were treated with three concentrations (1, 10, and 100 µm) of the compounds for 72 h. At the end of the treatment time, the supernatant medium was aspirated, and 50 µL of fresh DMEM containing MTT (0.5 mg/mL) was added to each well. Cells were then incubated at 37 °C for 2–4 h. After that, the medium was completely removed, and 50 µL of DMSO was added to each well to dissolve the precipitated formazan crystals formed by viable cells. Cell viability, represented by the absorbance of the formazan solution, was measured at 570 nm using the Synergy HTX Multimode Reader (BioTek, Vermont, USA), and cell viability was determined as described in the literature. For each concentration, the relative cell viability was calculated as follows: relative cell viability = (mean treatment absorbance/mean control absorbance) × 100%. Assays were performed in triplicate on three independent experiments. […] IC50 values were then calculated using the four-parameter logistic function in the SigmaPlot software (version 12.5) and presented as the mean ± SD from three independent experiments.
In general terms: Formazan colour is commonly taken as a measure of viable cells.

In the next experiment the test system is MCF7. The experiment can be described thus: MTT assay, MCF7 breast cancer cells. Conditions: 72 h; for inhibition at 1 µM / inhibition at 10 µM / inhibition at 100 µM: Homo sapiens, read-out: % cell growth inhibition; for inhibition at 1 µM: MCF7, 1 µM; for inhibition at 10 µM: MCF7, 10 µM; for inhibition at 100 µM / % cell growth inhibition: MCF7, 100 µM.
Text: as §1, §2, §3

For a further experiment, the system named is HSC3. In words: MTT assay, HSC3 head and neck cancer cells. Particulars: Homo sapiens, HSC-3, 72 h, 72 h, read-out: % cell growth inhibition; for inhibition at 1 µM: HSC3, 1 µM; for inhibition at 10 µM: HSC3, 10 µM; for inhibition at 100 µM: HSC3, 100 µM.
Text: as §1, §2, §3

The subject of a further experiment is RKO. In words: MTT assay, RKO colorectal cancer cells. Particulars: Homo sapiens, 72 h, read-out: % cell growth inhibition.
Text: as §1, §2, §3

As a reminder, the inhibition is the drop in the measured response relative to a control, in per cent.

Turning to `CCOC(=O)c1c(NC(=O)CN2CCC(C)CC2)sc2c1CCN(C(=O)OCC)C2` [6b, Diethyl 2-(2-(4-methylpiperidin-1-yl)acetamido)-4,7-dihydrothieno[2,3-c]pyridine-3,6-(5H)-dicarboxylate], the inhibition at 1 µM is 7.79% with T47D, 2.74% in the experiment on MCF7, 4.06% in the experiment with HSC3 and 10.7% with RKO. Also, the inhibition at 10 µM in the experiment on T47D turned out to be 24.4%; with MCF7 it was 29.7%; in the experiment with HSC3, 38%; in the experiment with RKO, 39.3%. Also, the inhibition at 100 µM with T47D was determined as 82%; with MCF7, 83.2%; in the experiment with HSC3, 79.4%; in the experiment with RKO it was 94.1%.

Take `CCOC(=O)c1c(NC(=O)CN2CCNCC2)sc2c1CCN(C(=O)OCC)C2` [6c, Diethyl 2-(2-(piperazin-1-yl)acetamido)-4,7-dihydrothieno[2,3-c]pyridine-3,6(5H)-dicarboxylate]: the inhibition at 1 µM in the experiment with T47D stood at 3.7%; in the experiment on MCF7, 0%; in the experiment on HSC3, 6.71%; with RKO, 17.1%. Further, the inhibition at 10 µM with T47D was 28.1%; with MCF7, 22.1%; in the experiment with HSC3 it was 30%; with RKO it was 30.9%. Moreover, the inhibition at 100 µM in the experiment on T47D is 80.8%; with MCF7, 81%; with HSC3, 83.4%; in the experiment with RKO, 93.6%.

For the compound `CCOC(=O)c1c(NC(=O)CN2CCN(C)CC2)sc2c1CCN(C(=O)OCC)C2` [6d, Diethyl 2-(2-(4-methylpiperazin-1-yl)acetamido)-4,7-dihydrothieno[2,3-c]pyridine-3,6-(5H)-dicarboxylate], the inhibition at 1 µM in the experiment on T47D worked out at 0%; in the experiment with MCF7, 1.42%; in the experiment on HSC3 it was 0%; in the experiment with RKO it was 0%. Besides, the inhibition at 10 µM in the experiment with T47D was 2.54%; in the experiment on MCF7, 3.7%; in the experiment on HSC3, 0%; with RKO, 0%. Further, the inhibition at 100 µM with T47D is 82.1%; with MCF7, 79.3%; in the experiment on HSC3, 83.9%; in the experiment on RKO, 94.4%.

For the compound `CCOC(=O)c1c(NC(=O)CN2CCN(CC)CC2)sc2c1CCN(C(=O)OCC)C2` [6e, Diethyl 2-(2-(4-ethylpiperazin-1-yl)acetamido)-4,7-dihydrothieno[2,3-c]pyridine-3,6(5H)-dicarboxylate], the inhibition at 1 µM in the experiment on T47D worked out at 5.23%; in the experiment on MCF7, 4.67%; in the experiment on HSC3 it was 3.26%; with RKO it was 6.17%. The inhibition at 10 µM was found to be 3.12% with T47D, 11.7% in the experiment on MCF7, 5.51% in the experiment with HSC3 and 7.24% with RKO. The inhibition at 100 µM in the experiment with T47D was found to be 79.4%; in the experiment on MCF7 it was 74.2%; in the experiment with HSC3 it was 75.8%; in the experiment on RKO, 90.1%.

Turning to `CCOC(=O)c1c(NC(=O)CN2CCN(C(=O)OC(C)(C)C)CC2)sc2c1CCN(C(=O)OCC)C2` [6f, Diethyl 2-(2-(4-(tert-butoxycarbonyl)piperazin-1-yl)acetamido)-4,7-dihydrothieno[2,3-c]-pyridine-3,6(5H)-dicarboxylate], in the experiment on T47D, the inhibition at 1 µM was 7.62%, the inhibition at 10 µM was found to be 16.2% and the inhibition at 100 µM amounted to 34.1%. In the experiment with MCF7, the inhibition at 1 µM was 7.34%, the inhibition at 10 µM came out at 10%, the inhibition at 100 µM was determined as 39% and the “% cell growth inhibition” value is recorded as “weaker inhibition”. Also, in the experiment with HSC3, the inhibition at 1 µM came to 0%, the inhibition at 10 µM was 16.8% and the inhibition at 100 µM is 45.8%. Besides, in the experiment with RKO, the inhibition at 1 µM came out at 6.11%, the inhibition at 10 µM was found to be 17.2% and the inhibition at 100 µM came to 47.6%.

Turning to `CCOC(=O)c1c(NC(=O)CN2CCN(c3ccccc3OC)CC2)sc2c1CCN(C(=O)OCC)C2` [6g, Diethyl 2-(2-(4-(2-methoxyphenyl)piperazin-1-yl)acetamido)-4,7-dihydrothieno[2,3-c]-pyridine-3,6(5H)-dicarboxylate], in the experiment on T47D, the inhibition at 1 µM is 0%, the inhibition at 10 µM came to 14.2% and the inhibition at 100 µM amounted to 59.9%. Besides, in the experiment with MCF7, the inhibition at 1 µM was 3.4%, the inhibition at 10 µM turned out to be 6.36%, the inhibition at 100 µM was 57.3% and the “% cell growth inhibition” value was “weaker inhibition”. In the experiment with HSC3, the inhibition at 1 µM was 0%, the inhibition at 10 µM was 15.9% and the inhibition at 100 µM was found to be 56.9%. In the experiment with RKO, the inhibition at 1 µM came to 0.53%, the inhibition at 10 µM is 14.6% and the inhibition at 100 µM amounted to 68.4%.

For `CCOC(=O)c1c(NC(=O)CN2CCOCC2)sc2c1CCN(C(=O)OCC)C2` [6h, Diethyl 2-(2-morpholinoacetamido)-4,7-dihydrothieno[2,3-c]pyridine-3,6(5H)-di-carboxylate], the inhibition at 1 µM is 0% in the experiment on T47D, 0% with MCF7, 0% in the experiment with HSC3 and 8.76% in the experiment on RKO. Further, the inhibition at 10 µM in the experiment with T47D came out at 17.8%; in the experiment on MCF7 it was 20.3%; with HSC3, 9.88%; with RKO, 19.1%. Moreover, the inhibition at 100 µM came out at 78.2% with T47D, 77.2% in the experiment with MCF7, 77.9% with HSC3 and 93.3% with RKO.

Consider `CCOC(=O)c1c(NC(=O)CN2CCN(C(=O)c3ccco3)CC2)sc2c1CCN(C(=O)OCC)C2` [6j, Diethyl 2-(2-(4-(furan-2-carbonyl)piperazin-1-yl)acetamido)-4,7-dihydrothieno[2,3-c]-pyridine-3,6(5H)-dicarboxylate], for which the inhibition at 1 µM in the experiment on T47D, in the experiment on MCF7, in the experiment with HSC3 and in the experiment on RKO was 0% in each case. Further, the inhibition at 10 µM with T47D was determined as 1.19%; in the experiment on MCF7, 16.2%; in the experiment on HSC3, 29.9%; with RKO, 17.3%. The inhibition at 100 µM was found to be 76% in the experiment on T47D, 76.5% in the experiment with MCF7, 86.4% in the experiment on HSC3 and 96.8% in the experiment with RKO.

In the case of `CCOC(=O)c1c(NC(=O)CN2CCN(c3ncccn3)CC2)sc2c1CCN(C(=O)OCC)C2` [6k, Diethyl 2-(2-(4-(pyrimidin-2-yl)piperazin-1-yl)acetamido)-4,7-dihydrothieno[2,3-c]-pyridine-3,6(5H)-dicarboxylate], the inhibition at 1 µM in the experiment with T47D, in the experiment on MCF7, with HSC3 and in the experiment with RKO was 0% each time. Further, the inhibition at 10 µM in the experiment on T47D was determined as 10.1%; in the experiment on MCF7 it was 12.2%; in the experiment on HSC3 it was 11.3%; with RKO it was 22.2%. For the same compound, the inhibition at 100 µM in the experiment on T47D came out at 76.5%; in the experiment with MCF7, 80%; in the experiment with HSC3 it was 86.2%; in the experiment on RKO, 96.1%.
